{"source": "paper PMC8962522", "about": "“Direct interaction of TrkA/CD44v3 is essential for NGF-promoted aggressiveness of breast cancer cells” (Journal of Experimental & Clinical Cancer Research : CR, 2022)", "tested_on": "MDA-MB-231 cell metastasis", "experiment": "Metastasis of MDA-MB-231 xenografts (PCR of human microglobulin)", "assay_type": "in vivo, SCID mice", "settings": "lung, brain and liver; mice sacrificed when primary tumors reached the same size", "experimental": "MDA-MB-231 cells (2 × 10^6) were subcutaneously injected into the flanks of six-week-old female SCID mice. One month after injection, the mice were randomized into 2 groups and injected near the tumor with CD44v3 mimetic peptide 4 (P4) or not (control) five times in a 3-day interval. Tumor volume was determined throughout the experiment by measuring the length (l) and width (w) and was calculated as π/6 × l × w × […]. Animals were sacrificed using isoflurane anesthesia when the tumors reached a similar size, and the organs were immediately removed and stored in liquid nitrogen.\nEach organ was placed in a Precellys tube with QIAzol (1 mL) for lysis using a Precellys machine (3×). […]\nTo assess the role of TrkA/CD44v3 in vivo, SCID mice were injected with MDA-MB-231 cells to generate xenografts. Primary tumor development and metastasis (to the lung, brain and liver) were analyzed (Fig. 6). […] The development of primary tumors was measured throughout the experiments. […] We also assessed the metastatic burden. […] Micrometastases were detected at the end of the experiment by PCR of human microglobulin in xenograft mice treated with or without the CD44v3 mimetic peptide (Fig. 6E). […]\nFig. 6 CD44v3 mimetic peptide 4 blocks MDA-MB-231 tumor growth and metastasis. […] Body weight (B) and tumor volume (C) were measured following CD44v3 mimetic peptide administration (10 mice per group). […]"}
{"sequence": "IDDDEDFISST [Peptide 4, mimetic peptide 4 (…) corresponding to the C-terminal region of CD44v3]", "values": [{"measurement": "metastatic burden (in words)", "result": "decreased the metastatic burden at each analyzed location"}]}
